# Values quoted from earlier work in patent US20110208437A1, “METHOD AND APPARATUS FOR I[…] SAFE AND E[…] REGIMEN” (THE MCLEAN HOSPITAL CORPORATION, priority 2008, published 2011).
# Key:
# [1] = clinical trials, adults and children
# dopamine reuptake = dopamine reuptake (Homo sapiens, UniProt Q01959)
# [2] = 2.5 mg Focalin same therapeutic benefit as 5.0 mg Ritalin
# [3] = oral administration of the same mg/kg dose
# Sequence of dopamine reuptake (Q01959 whole entry): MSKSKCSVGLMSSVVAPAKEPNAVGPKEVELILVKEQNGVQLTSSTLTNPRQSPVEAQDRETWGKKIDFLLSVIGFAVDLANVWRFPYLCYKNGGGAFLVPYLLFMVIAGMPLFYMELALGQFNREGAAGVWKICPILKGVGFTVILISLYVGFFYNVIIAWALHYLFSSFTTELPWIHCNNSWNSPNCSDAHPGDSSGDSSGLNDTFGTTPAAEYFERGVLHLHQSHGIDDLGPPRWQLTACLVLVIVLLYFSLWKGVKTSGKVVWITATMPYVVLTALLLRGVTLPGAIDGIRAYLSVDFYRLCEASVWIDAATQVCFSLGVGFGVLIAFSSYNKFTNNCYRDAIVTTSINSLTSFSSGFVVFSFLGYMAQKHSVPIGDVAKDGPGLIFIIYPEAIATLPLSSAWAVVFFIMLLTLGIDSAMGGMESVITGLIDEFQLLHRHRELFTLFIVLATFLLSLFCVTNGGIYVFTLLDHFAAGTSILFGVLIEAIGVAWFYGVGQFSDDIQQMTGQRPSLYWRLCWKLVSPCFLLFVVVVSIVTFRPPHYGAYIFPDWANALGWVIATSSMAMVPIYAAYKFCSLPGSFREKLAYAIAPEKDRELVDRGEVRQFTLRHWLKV
smiles,measurement,setting,value
CNCC[C@@H](Oc1ccccc1C)c1ccccc1 [Atomoxetine],coverage of symptoms associated with ADHD,[1],24 h
CC(NC(C)(C)C)C(=O)c1cccc(Cl)c1 (stereo not shown) [Bupropion],potency as inhibitor of dopamine reuptake relative to norepinephrine reuptake,dopamine reuptake,twice as potent
COC(=O)[C@H](c1ccccc1)[C@H]1CCCCN1 [Focalin],potency relative to methylphenidate,[2],twice as potent
"COC(=O)C(c1ccccc1)C1CCCCN1 (stereo not shown) [IR-MPH, methylphenidate]",differences between individuals in peak blood levels (Cmax),[3],2-3 fold
